The source of these data is patent US11667645B2, “Granzyme B directed imaging and therapy” (CytoSite Biopharma Inc., priority 2018, dated 2023).

The structures appear in SMILES notation.

Granzyme B (human lymphocytes), sequence (P10144 21-247): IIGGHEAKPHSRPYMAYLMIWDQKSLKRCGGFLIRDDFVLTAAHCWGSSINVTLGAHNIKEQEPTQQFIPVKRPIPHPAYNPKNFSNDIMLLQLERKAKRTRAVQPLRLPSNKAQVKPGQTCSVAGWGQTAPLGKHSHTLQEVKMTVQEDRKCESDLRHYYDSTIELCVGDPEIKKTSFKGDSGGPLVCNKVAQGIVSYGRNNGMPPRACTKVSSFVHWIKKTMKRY

For this assay, the target named is Granzyme B (human lymphocytes) (Homo sapiens (Human), UniProt P10144). The experiment in a line: human Granzyme B biochemical assay. The note with it: Granzyme B (human lymphocytes) 5 nM, substrate Ac-IETD-AFC 200 μM, Cpd incubation with enzyme 30 mins, 22° C., read time 60 mins; read-out: IC50. In a few lines:
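Enzyme (10 nM working stock, assay buffer with 0.1% BSA) pre-incubated with compound for 30 min at 22 °C, then Ac-IETD-AFC (800 µM working stock) added for 60 min at 22 °C in the dark. Fluorescence read at Ex 400/Em 505 nm; 8-point 3.16-fold series (40 µM top working stock); IC50 from % inhibition versus standard-inhibitor and DMSO controls.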
`COc1cccc(C(=O)N[C@H](C(=O)N[C@H]2CCc3cccc4c3N(C2=O)[C@H](C(=O)NCc2c[nH]nn2)C4)C(C)C)c1` [Compound C064, (2S,SS)-5-[(S)-2-(3-Methoxy-benzoylamino)-3-methyl-butyrylamino]-4-oxo-1,2,4,5,6,7-hexahydro-azepino[3,2,1-hi]indole-2-carboxylic acid (1H-[1,2,3]triazol-4-ylmethyl)-amide]: the half-maximal inhibitory concentration (IC50) – broadly, the concentration at which inhibition is half-maximal – lay within 1 to 300 nM. In the case of `COc1ccc(C(=O)N[C@H](C(=O)N[C@H]2CCc3cccc4c3N(C2=O)[C@H](C(=O)NCc2c[nH]nn2)C4)C(C)C)cc1` [Compound C065, (2S,5S)-5-[(S)-2-(4-Methoxy-benzoylamino)-3-methyl-butyrylamino]-4-oxo-1,2,4,5,6,7-hexahydro-azepino[3,2,1-hi]indole-2-carboxylic acid (1H-[1,2,3]triazol-4-ylmethyl)-amide], the concentration for half-maximal inhibition (IC50) lay in the range of 1 to 300 nM. Next, `CC[C@H](C)[C@H](NC(=O)c1ccccn1)C(=O)N[C@H]1CCc2cccc3c2N(C1=O)[C@H](C(=O)NCc1c[nH]nn1)C3` [Compound C066, (2S,5S)-5-{(2S,3S)-3-Methyl-2-[(pyridine-2-carbonyl)-amino]-pentanoylamino}-4-oxo-1,2,4,5,6,7-hexahydro-azepino[3,2,1-hi]indole-2-carboxylicacid (1H-[1,2,3]triazol-4-ylmethyl)-amide]: 1 to 300 nM.

Consider `CC[C@H](C)[C@H](NC(=O)c1cccnc1)C(=O)N[C@H]1CCc2cccc3c2N(C1=O)[C@H](C(=O)NCc1c[nH]nn1)C3` [Compound C067, (2S,5S)-5-{(2S,3S)-3-Methyl-2-[(pyridine-3-carbonyl)-amino]-pentanoylamino}-4-oxo-1,2,4,5,6,7-hexahydro-azepino[3,2,1-hi]indole-2-carboxylicacid (1H-[1,2,3]triazol-4-ylmethyl)-amide], for which the IC50 was in the range of 1 to 300 nM. Turning to `CC[C@H](C)[C@H](NC(=O)c1ccncc1)C(=O)N[C@H]1CCc2cccc3c2N(C1=O)[C@H](C(=O)NCc1c[nH]nn1)C3` [Compound C068, (2S,5S)-5-{(2S,3S)-3-Methyl-2-[(pyridine-4-carbonyl)-amino]-pentanoylamino}-4-oxo-1,2,4,5,6,7-hexahydro-azepino[3,2,1-hi]indole-2-carboxylicacid (1H-[1,2,3]triazol-4-ylmethyl)-amide], the IC50 fell in the range of 1 to 300 nM. Turning to `CC(C)[C@H](NC(=O)c1ccccn1)C(=O)N[C@H]1CCc2cccc3c2N(C1=O)[C@H](C(=O)NCc1c[nH]nn1)C3` [Compound C069, (2S,5S)-5-{(S)-3-Methyl-2-[(pyridine-2-carbonyl)-amino]-butyrylamino}-4-oxo-1,2,4,5,6,7-hexahydro-azepino[3,2,1-hi]indole-2-carboxylic acid (1H-[1,2,3]triazol-4-ylmethyl)-amide], the IC50 is 1 to 300 nM. Next, `CC(C)[C@H](NC(=O)c1cccnc1)C(=O)N[C@H]1CCc2cccc3c2N(C1=O)[C@H](C(=O)NCc1c[nH]nn1)C3` [Compound C070, (2S,5S)-5-{(S)-3-Methyl-2-[(pyridine-3-carbonyl)-amino]-butyrylamino}-4-oxo-1,2,4,5,6,7-hexahydro-azepino[3,2,1-hi]indole-2-carboxylic acid (1H-[1,2,3]triazol-4-ylmethyl)-amide]: 1 to 300 nM; `CC(C)[C@H](NC(=O)c1ccncc1)C(=O)N[C@H]1CCc2cccc3c2N(C1=O)[C@H](C(=O)NCc1c[nH]nn1)C3` [Compound C071, (2S,5S)-5-{(S)-3-Methyl-2-[(pyridine-4-carbonyl)-amino]-butyrylamino}-4-oxo-1,2,4,5,6,7-hexahydro-azepino[3,2,1-hi]indole-2-carboxylic acid (1H-[1,2,3]triazol-4-ylmethyl)-amide]: 1 to 300 nM; `CCC(CC)[C@H](NC(=O)Cc1csc2ccccc12)C(=O)N[C@H]1CCc2cccc3c2N(C1=O)[C@H](C(=O)NCc1c[nH]nn1)C3` [Compound C072, (2S,5S)-5-[(S)-2-(2-Benzo[b]thiophen-3-yl-acetylamino)-3-ethyl-pentanoylamino]-4-oxo-1,2,4,5,6,7-hexahydro-azepino[3,2,1-hi]indole-2-carboxylic acid (1H-[1,2,3]triazol-4-ylmethyl)-amide]: 301 to 1000 nM. In the case of `CCC(CC)[C@H](NC(=O)c1ccccc1)C(=O)N[C@H]1CCc2cccc3c2N(C1=O)[C@H](C(=O)NCc1c[nH]nn1)C3` [Compound C073, (2S,5S)-5-((S)-2-Benzoylamino-3-ethyl-pentanoylamino)-4-oxo-1,2,4,5,6,7-hexahydro-azepino[3,2,1-hi]indole-2-carboxylic acid (1H-[1,2,3]triazol-4-ylmethyl)-amide], the IC50 fell in the range of 301 to 1000 nM. Next, `CCC(CC)[C@H](NC(C)=O)C(=O)N[C@H]1CCc2cccc3c2N(C1=O)[C@H](C(=O)NCc1c[nH]nn1)C3` [Compound C074, (2S,5S)-5-((S)-2-Acetylamino-3-ethyl-pentanoylamino)-4-oxo-1,2,4,5,6,7-hexahydro-azepino[3,2,1-hi]indole-2-carboxylic acid (1H-[1,2,3]triazol-4-ylmethyl)-amide]: 1 to 300 nM; `O=C(Cc1csc2ccccc12)N[C@H](C(=O)N[C@H]1CCc2cccc3c2N(C1=O)[C@H](C(=O)NCc1c[nH]nn1)C3)C1CCCC1` [Compound C075, (2S,5S)-5-[(S)-2-(2-Benzo[b]thiophen-3-yl-acetylamino)-2-cyclopentyl-acetylamino]-4-oxo-1,2,4,5,6,7-hexahydro-azepino[3,2,1-hi]indole-2-carboxylic acid (1H-[1,2,3]triazol-4-ylmethyl)-amide]: 1 to 300 nM.

As for `O=C(N[C@H](C(=O)N[C@H]1CCc2cccc3c2N(C1=O)[C@H](C(=O)NCc1c[nH]nn1)C3)C1CCCC1)c1ccccc1` [Compound C076, (2S,5S)-5-((S)-2-Benzoylamino-2-cyclopentyl-acetylamino)-4-oxo-1,2,4,5,6,7-hexahydro-azepino[3,2,1-hi]indole-2-carboxylic acid (1H-[1,2,3]triazol-4-ylmethyl)-amide], the concentration for half-maximal inhibition (IC50) fell in the range of 1 to 300 nM. `CC(=O)N[C@H](C(=O)N[C@H]1CCc2cccc3c2N(C1=O)[C@H](C(=O)NCc1c[nH]nn1)C3)C1CCCC1` [Compound C077, (2S,5S)-5-((S)-2-Acetylamino-2-cyclopentyl-acetylamino)-4-oxo-1,2,4,5,6,7-hexahydro-azepino[3,2,1-hi]indole-2-carboxylic acid (1H-[1,2,3]triazol-4-ylmethyl)-amide]: the IC50 fell in the range of 1 to 300 nM. The figure for `O=C(Cc1csc2ccccc12)N[C@H](C(=O)N[C@H]1CCc2cccc3c2N(C1=O)[C@H](C(=O)NCc1c[nH]nn1)C3)C1CCCCC1` [Compound C078, (2S,5S)-5-[(S)-2-(2-Benzo[b]thiophen-3-yl-acetylamino)-2-cyclohexyl-acetylamino]-4-oxo-1,2,4,5,6,7-hexahydro-azepino[3,2,1-hi]indole-2-carboxylic acid (1H-[1,2,3]triazol-4-ylmethyl)-amide] is 301 to 1000 nM; for `O=C(N[C@H](C(=O)N[C@H]1CCc2cccc3c2N(C1=O)[C@H](C(=O)NCc1c[nH]nn1)C3)C1CCCCC1)c1ccccc1` [Compound C079, (2S,5S)-5-((S)-2-Benzoylamino-2-cyclohexyl-acetylamino)-4-oxo-1,2,4,5,6,7-hexahydro-azepino[3,2,1-hi]indole-2-carboxylic acid (1H-[1,2,3]triazol-4-ylmethyl)-amide] it is 1000 to 5000 nM. For `CC(=O)N[C@H](C(=O)N[C@H]1CCc2cccc3c2N(C1=O)[C@H](C(=O)NCc1c[nH]nn1)C3)C1CCCCC1` [Compound C080, (2S,5S)-5-((S)-2-Acetylamino-2-cyclohexyl-acetylamino)-4-oxo-1,2,4,5,6,7-hexahydro-azepino[3,2,1-hi]indole-2-carboxylic acid (1H-[1,2,3]triazol-4-ylmethyl)-amide], the IC50 lay in the range of 301 to 1000 nM. As for `CC(=O)N[C@H](C(=O)N[C@H]1CCc2cccc3c2N(C1=O)[C@H](C(=O)NCc1c[nH]nn1)C3)C1CC1` [Compound C081, (2S,5S)-5-((S)-2-Acetylamino-2-cyclopropyl-acetylamino)-4-oxo-1,2,4,5,6,7-hexahydro-azepino[3,2,1-hi]indole-2-carboxylic acid (1H-[1,2,3]triazol-4-ylmethyl)-amide], the IC50 was in the range of 301 to 1000 nM. The figure for `O=C(N[C@H](C(=O)N[C@H]1CCc2cccc3c2N(C1=O)[C@H](C(=O)NCc1c[nH]nn1)C3)C1CC1)c1ccccc1` [Compound C082, (2S,5S)-5-((S)-2-Benzoylamino-2-cyclopropyl-acetylamino)-4-oxo-1,2,4,5,6,7-hexahydro-azepino[3,2,1-hi]indole-2-carboxylic acid (1H-[1,2,3]triazol-4-ylmethyl)-amide] is 301 to 1000 nM. For `CC(=O)N[C@H](C(=O)N[C@H]1CCc2cccc3c2N(C1=O)[C@H](C(=O)NCc1c[nH]nn1)C3)C1CCC1` [Compound C083, (2S,5S)-5-((S)-2-Acetylamino-2-cyclobutyl-acetylamino)-4-oxo-1,2,4,5,6,7-hexahydro-azepino[3,2,1-hi]indole-2-carboxylic acid (1H-[1,2,3]triazol-4-ylmethyl)-amide], the 50% inhibitory concentration (IC50) is 1 to 300 nM.

Turning to `O=C(N[C@H](C(=O)N[C@H]1CCc2cccc3c2N(C1=O)[C@H](C(=O)NCc1c[nH]nn1)C3)C1CCC1)c1ccccc1` [Compound C084, (2S,5S)-5-((S)-2-Benzoylamino-2-cyclobutyl-acetylamino)-4-oxo-1,2,4,5,6,7-hexahydro-azepino[3,2,1-hi]indole-2-carboxylic acid (1H-[1,2,3]triazol-4-ylmethyl)-amide], the 50% inhibitory concentration (IC50) is 1 to 300 nM.

With `CC(=O)N[C@H](C(=O)N[C@H]1CCc2cccc3c2N(C1=O)[C@H](C(=O)NCC(=O)O)C3)C(C)C` [Compound C085, {[(2S,5S)-5-((S)-2-Acetylamino-3-methyl-butyrylamino)-4-oxo-1,2,4,5,6,7-hexahydro-azepino[3,2,1-hi]indole-2-carbonyl]-amino}-acetic acid], the half-inhibitory concentration (IC50) is 1000 to 5000 nM.
